According to patent US4472305A, “Hexapeptide amides” (Sterling Drug Inc., priority 1983, dated 1984):
Non-standard residues stand in square brackets, D forms with d. Residues, ends and D or L forms follow the SMILES beside them. Phe(4-Cl) = N[C@@H](Cc1ccc(Cl)cc1)C(=O)O; Gly(NCH2CH2Ph) = O=C(O)CNCCc1ccccc1; NMeF = CN[C@@H](Cc1ccccc1)C(=O)O; 4Pal = N[C@@H](Cc1ccncc1)C(=O)O; Dap(Me2) = CN(C)C[C@H](N)C(=O)O; d4Pal = N[C@H](Cc1ccncc1)C(=O)O; dPhg = N[C@@H](C(=O)O)c1ccccc1; NMeL = CN[C@@H](CC(C)C)C(=O)O; Nle = CCCC[C@H](N)C(=O)O; Nphe = O=C(O)CNCc1ccccc1; Dap = NC[C@H](N)C(=O)O; Sar = CNCC(=O)O

Assays:
SP receptor [1] = target: T1, SP receptor (Rattus norvegicus, UniProt P14600); test: 3H-SP binding test, rat submaxillary gland tissue; details: for inhibition at 30 µM: read-out: 3H-SP Binding % Inhibition; for effect on 3H-SP binding (specificity): rat submaxillary gland or brain tissue preparation, tissue not specified
T1 construct: from tissue; host or cells: rat submaxillary gland (crude tissue suspension)
Description: (§1) Crude rat submaxillary gland or brain tissue is suspended in buffer containing protease inhibitors (and calcium ions and magnesium ions in the case of brain tissue) and incubated under nitrogen atmosphere with ^3 H-SP and test compound. The bound SP is then separated from free SP by filtration and quantitated by liquid scintillation spectroscopy. This test meets the criteria of reversibility, saturability, sensitivity to known SP agonists and antagonists, and specificity for an SP receptor binding assay.
(§2) With regard to reversibility, addition of unlabelled SP causes a gradual decrease in bound ^3 H-SP, showing that SP is not irreversibly bound to the receptors in the tissue. With regard to saturability, the amount of bound ^3 H-SP in the preparation increases in direct proportion to the concentration of ^3 H-SP added until a saturation point is reached. […] With regard to sensitivity, known SP agonists and antagonists inhibit ^3 H-SP binding.
(§3) The results are expressed either as percent inhibition at a concentration of 30 micromoles per liter (μM) or as an IC50 calculated as the concentration in micromoles per liter.
(§4) The ^3 H-SP binding test results were obtained using rat submaxillary gland tissue for Examples 1-34 and rat brain tissue for Examples 35-42.

[2] = test system: longitudinal muscle of guinea pig terminal ileum; test: Guinea pig ileum test (SP agonist and antagonist effect); assay type: cell-based; details: for Guinea Pig Ileum % Agonism (potency relative to SP): contraction of ileum longitudinal muscle strips, relative molar potency vs SP
Description: Strips of longitudinal muscle derived from terminal ileum of adult male guinea pigs (Charles River, 400-600 g.) are mounted in 5-ml. organ baths containing oxygenated Krebs solution containing 1 μM each of atropine and pyrilamine maintained at 30-33 C. and connected to isometric transducers. Following tissue equilibration and repeated washing (45-60 min.), SP or an appropriate reference agonist is added cumulatively to the bath and contractions of the tissue are recorded. The bath is washed thoroughly and 30-45 min. is allowed to elapse before construction of a second reference agonist curve to assure reproducibility of the responses. Test compounds are similarly evaluated for agonist activity up to a maximum concentration of 10-100 μM. […] When appropriate, relative molar potency ratios are calculated (EC50 reference/ED50 test drug). […] The effects of several concentrations of test antagonist, pooled across separate experiments, provide dose-ratio (EC50 shift) data for a standard Schild plot analysis, with computation of the pA2.

SP receptor [3] = target: T1, SP receptor; test: 3H-SP binding test, rat brain tissue; details: 30 μM test compound; rat brain tissue (Examples 35-42)
Description: as §1, §2, §3, §4

[4] = 30 μM test compound, rat submaxillary gland tissue (Examples 1-34)

T1 sequence (P14600 whole entry): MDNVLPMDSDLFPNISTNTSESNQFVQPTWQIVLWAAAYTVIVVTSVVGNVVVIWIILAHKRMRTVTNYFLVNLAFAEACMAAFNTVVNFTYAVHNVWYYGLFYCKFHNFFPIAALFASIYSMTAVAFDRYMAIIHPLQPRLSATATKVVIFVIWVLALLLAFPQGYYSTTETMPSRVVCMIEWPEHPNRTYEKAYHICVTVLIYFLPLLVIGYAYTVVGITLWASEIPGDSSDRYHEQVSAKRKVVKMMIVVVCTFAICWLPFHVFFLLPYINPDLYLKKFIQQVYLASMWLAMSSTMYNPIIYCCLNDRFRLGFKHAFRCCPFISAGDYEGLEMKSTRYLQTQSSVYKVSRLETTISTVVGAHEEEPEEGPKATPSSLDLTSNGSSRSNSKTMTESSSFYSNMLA

Compound	inhibition at 30 µM (SP receptor [1]; [4]) [%]	Guinea Pig Ileum % Agonism (potency relative to SP) [2] [%]	other results
CSCC[C@H](NC(=O)[C@H](CC(C)C)NC(=O)[C@@H](C)NC(=O)[C@H](Cc1ccccc1)NC(=O)[C@H](Cc1ccccc1)NC(=O)[C@@H]1CCCN1)C(N)=O [Example 1, HPro-Phe-Phe-DAla-Leu-MetNH2] (H-PFF[dA]LM-NH2)	17	0.7	–
CSCC[C@H](NC(=O)[C@H](CC(C)C)NC(=O)CNC(=O)[C@H](Cc1ccccc1)N(C)C(=O)[C@H](Cc1ccccc1)NC(=O)[C@@H]1CCCN1)C(N)=O [Example 2, HPro-Phe-MePhe-Gly-Leu-MetNH2] (H-PF[NMeF]GLM-NH2)	25	–	–
CSCC[C@H](NC(=O)[C@H](CC(C)C)NC(=O)CN(C)C(=O)[C@H](Cc1ccccc1)NC(=O)[C@H](Cc1ccccc1)NC(=O)[C@@H]1CCCN1)C(N)=O [Example 3, HPro-Phe-Phe-Sar-Leu-MetNH2] (H-PFF[Sar]LM-NH2)	93	27	–
CSCC[C@H](NC(=O)[C@@H](CC(C)C)NC(=O)CNC(=O)[C@H](Cc1ccccc1)NC(=O)[C@H](Cc1ccccc1)NC(=O)[C@@H]1CCCN1)C(N)=O [Example 4, HPro-Phe-Phe-Gly-DLeu-MetNH2] (H-PFFG[dL]M-NH2)	17	0.3	–
CSCC[C@H](NC(=O)[C@H](CC(C)C)N(C)C(=O)CNC(=O)[C@H](Cc1ccccc1)NC(=O)[C@H](Cc1ccccc1)NC(=O)[C@@H]1CCCN1)C(N)=O [Example 5, HPro-Phe-Phe-Gly-MeLeu-MetNH2] (H-PFFG[NMeL]M-NH2)	75	–	–
CSCC[C@@H](NC(=O)[C@H](CC(C)C)NC(=O)CNC(=O)[C@H](Cc1ccccc1)NC(=O)[C@H](Cc1ccccc1)NC(=O)[C@@H]1CCCN1)C(N)=O [Example 6, HPro-Phe-Phe-Gly-Leu-DMetNH2] (H-PFFGL[dM]-NH2)	8	4	–
CSCC[C@H](NC(=O)[C@H](CC(C)C)NC(=O)CNC(=O)[C@@H](Cc1ccccc1)NC(=O)[C@H](Cc1ccccc1)NC(=O)[C@@H]1CCCN1)C(N)=O [Example 7, HPro-Phe-DPhe-Gly-Leu-MetNH2] (H-PF[dF]GLM-NH2)	48	0.7	–
CCCC[C@H](NC(=O)[C@H](CC(C)C)NC(=O)CNC(=O)[C@H](Cc1ccccc1)NC(=O)[C@H](Cc1ccccc1)NC(=O)[C@@H]1CCCN1)C(N)=O [Example 8, HPro-Phe-Phe-Gly-Leu-NleNH2] (H-PFFGL[Nle]-NH2)	49	3	–
CSCC[C@H](NC(=O)[C@H](CC(C)C)NC(=O)CNC(=O)[C@H](Cc1ccccc1)NC(=O)[C@@H](Cc1ccccc1)NC(=O)[C@@H]1CCCN1)C(N)=O [Example 9, HPro-DPhe-Phe-Gly-Leu-MetNH2] (H-P[dF]FGLM-NH2)	22	0.0009	Guinea Pig Ileum pA2 [2]: 5.6
CSCC[C@H](NC(=O)[C@H](CC(C)C)NC(=O)CNC(=O)[C@H](Cc1ccccc1)NC(=O)[C@H](Cc1ccccc1)NC(=O)[C@H]1CCCN1)C(N)=O [Example 10, HDPro-Phe-Phe-Gly-Leu-MetNH2] (H-[dP]FFGLM-NH2)	65	10	–
CSCC[C@H](NC(=O)[C@H](CC(C)C)NC(=O)CN(C)C(=O)[C@H](Cc1ccccc1)N(C)C(=O)[C@H](Cc1ccccc1)NC(=O)[C@@H]1CCCN1)C(N)=O [Example 11, HPro-Phe-MePhe-Sar-Leu-MetNH2] (H-PF[NMeF][Sar]LM-NH2)	11	–	–
CSCC[C@H](NC(=O)[C@H](CC(C)C)NC(=O)[C@H](CN)NC(=O)[C@H](Cc1ccccc1)NC(=O)[C@H](Cc1ccccc1)NC(=O)[C@@H]1CCCN1)C(N)=O [Example 13, HPro-Phe-Phe-LDap-Leu-MetNH2] (H-PFF[Dap]LM-NH2)	15	–	–
CSCC[C@H](NC(=O)[C@H](CC(C)C)N1CC[C@H](NC(=O)[C@H](Cc2ccccc2)NC(=O)[C@H](Cc2ccccc2)NC(=O)[C@@H]2CCCN2)C1=O)C(N)=O [Example 14, HPro-Phe-Phe-CabLeu-MetNH2]	10	–	–
CSCC[C@H](NC(=O)[C@H](CC(C)C)NC(=O)[C@H](CCC(=O)O)NC(=O)[C@H](Cc1ccccc1)NC(=O)[C@H](Cc1ccccc1)NC(=O)[C@@H]1CCCN1)C(N)=O [Example 15, HPro-Phe-Phe-Glu-Leu-MetNH2] (H-PFFELM-NH2)	10	0.004	–
CSCC[C@H](NC(=O)[C@H](CN(C)C)NC(=O)CNC(=O)[C@H](Cc1ccccc1)NC(=O)[C@H](Cc1ccccc1)NC(=O)[C@@H]1CCCN1)C(N)=O [Example 16, HPro-Phe-Phe-Gly-Gal-MetNH2] (H-PFFG[Dap(Me2)]M-NH2)	13	–	–
CSCC[C@H](NC(=O)[C@H](CC(C)C)NC(=O)[C@H](Cc1ccncc1)NC(=O)[C@H](Cc1ccccc1)NC(=O)[C@H](Cc1ccccc1)NC(=O)[C@@H]1CCCN1)C(N)=O [Example 19] (H-PFF[4Pal]LM-NH2)	42	–	–
CSCC[C@H](NC(=O)[C@H](CC(C)C)NC(=O)[C@@H](Cc1ccncc1)NC(=O)[C@H](Cc1ccccc1)NC(=O)[C@H](Cc1ccccc1)NC(=O)[C@@H]1CCCN1)C(N)=O [Example 20] (H-PFF[d4Pal]LM-NH2)	20	–	–
CSCC[C@H](NC(=O)[C@H](CC(C)C)NC(=O)[C@@H](Cc1ccccc1)NC(=O)[C@H](Cc1ccccc1)NC(=O)[C@H](NC(=O)[C@@H]1CCCN1)c1ccccc1)C(N)=O [Example 28, HPro-DPhg-Phe-DPhe-Leu-MetNH2] (H-P[dPhg]F[dF]LM-NH2)	–	–	inhibition at 30 µM (SP receptor [1]): 33%
CSCC[C@H](NC(=O)[C@H](CC(C)C)NC(=O)[C@@H](Cc1ccccc1)NC(=O)CN(Cc1ccccc1)C(=O)[C@@H](Cc1ccccc1)NC(=O)[C@@H]1CCCN1)C(N)=O [Example 30, HPro-DPhe-Bgl-DPhe-Leu-MetNH2] (H-P[dF][Nphe][dF]LM-NH2)	40	–	–
CSCC[C@H](NC(=O)[C@H](CC(C)C)NC(=O)[C@@H](Cc1ccccc1)NC(=O)CN(CCc1ccccc1)C(=O)[C@@H](Cc1ccccc1)NC(=O)[C@@H]1CCCN1)C(N)=O [Example 32, HPro-DPhe-Pgl-DPhe-Leu-MetNH2] (H-P[dF][Gly(NCH2CH2Ph)][dF]LM-NH2)	40	–	–
CSCC[C@H](NC(=O)[C@H](CC(C)C)NC(=O)[C@@H](CCCCN)NC(=O)[C@H](Cc1ccccc1)NC(=O)[C@@H](Cc1c[nH]c2ccccc12)NC(=O)[C@@H]1CCCN1)C(N)=O [Example 33, HPro-DTrp-Phe-DLys-Leu-MetNH2] (H-P[dW]F[dK]LM-NH2)	15	–	–
CSCC[C@H](NC(=O)[C@H](CC(C)C)NC(=O)[C@@H](CCCNC(=N)N)NC(=O)[C@H](Cc1ccccc1)NC(=O)[C@@H](Cc1c[nH]c2ccccc12)NC(=O)[C@@H]1CCCN1)C(N)=O [Example 34, HPro-DTrp-Phe-DArg-Leu-MetNH2] (H-P[dW]F[dR]LM-NH2)	20	5.2	–
CSCC[C@H](NC(=O)[C@H](CC(C)C)NC(=O)CNC(=O)[C@H](Cc1ccc(Cl)cc1)NC(=O)[C@H](Cc1ccc(Cl)cc1)NC(=O)[C@@H]1CCCN1)C(N)=O [Example 37, HPro-Pcp-Pcp-Gly-Leu-MetNH2] (H-P[Phe(4-Cl)][Phe(4-Cl)]GLM-NH2)	–	–	inhibition at 30 µM (SP receptor [3]): 62%
CSCC[C@H](NC(=O)[C@H](CC(C)C)NC(=O)[C@@H](Cc1c[nH]c2ccccc12)NC(=O)[C@H](Cc1ccccc1)N(C)C(=O)[C@@H](Cc1c[nH]c2ccccc12)NC(=O)[C@@H]1CCCN1)C(N)=O [Example 38, HPro-DTrp-MePhe-DTrp-Leu-MetNH2] (H-P[dW][NMeF][dW]LM-NH2)	–	–	inhibition at 30 µM (SP receptor [3]): 68%
NCC(CC(=O)O)c1ccc(Cl)cc1 (stereo not drawn) [baclofen, reference compound]	–	–	effect on 3H-SP binding (specificity) (SP receptor [1]): do not affect
COc1cc(CNC(=O)CCCC/C=C/C(C)C)ccc1O [capsaicin, reference compound]	–	–	effect on 3H-SP binding (specificity) (SP receptor [1]): do not affect
HPro-Phe-D,LBpa-Gly-Leu-MetNH2 [Example 18]	–	33	3H-SP Binding % Inhibition (SP receptor [1]; [4]): 90%
